Legend:
Format in all cases: in vivo
[1] = test system: pyrethroid-susceptible lab strain horn flies (Haematobia irritans); experiment: 24 hour treated filter paper bioassay, pyrethroid-susceptible horn flies (Example 1)
Description: (§1) Evaluation Of The Effect Of Test Compounds vs. Cypermethrin On Susceptible And Resistant Strains Of Horn Flies (Haematobia irritans).
(§2) In this bioassay, highly pyrethroid-resistant wild flies and flies of a pyrethroid-susceptible lab strain are used. All flies are held in plastic petri dishes and exposed to sequential rates of test compound residue on filter paper^1. A 1.25 inch hole is cut in the bottom half of the 100 mL petri dish and covered with fiberglass window screen. The bottom is used as the top in this bioassay, in order that the flies may be blood fed through the screened opening with a muslin pad saturated with citrated cattle blood.
(§3) The experiments are conducted in triplicate to determine 24 hour LC50 data for the test compound and cypermethrin on susceptible and pyrethroid-resistant horn flies. The experiments are conducted on site so that freshly captured pyrethroid-resistant horn flies can be used. On the exemplified site, very high levels of pyrethroid resistance had been selected through several years of pyrethroid cattle ear tag use^2. Wild pyrethroid-resistant horn flies are tested within 1 hour of capture to minimize check mortality. The resistance factor (RF) is determined by the following equation: […]
(§4) The LC50 is the concentration in μlg/cm^2 of test com-pound required to kill 50% of the fly population tested. The LC50 values are determined from the mortality data using standard log probit analysis techniques^3, and are within 95% confidence limits^1. The data obtained is shown in Table I. The references listed below are incorporated herein by reference thereto.

[2] = test system: pyrethroid-resistant wild horn flies (Haematobia irritans); experiment: 24 hour treated filter paper bioassay, pyrethroid-resistant horn flies, with resistance factor (Example 1)
Description: as §1, §2
(§5) The experiments are conducted in triplicate to determine 24 hour LC50 data for the test compound and cypermethrin on susceptible and pyrethroid-resistant horn flies. The experiments are conducted on site so that freshly captured pyrethroid-resistant horn flies can be used. On the exemplified site, very high levels of pyrethroid resistance had been selected through several years of pyrethroid cattle ear tag use^2. Wild pyrethroid-resistant horn flies are tested within 1 hour of capture to minimize check mortality. The resistance factor (RF) is determined by the following equation:
(§6) RF=Resistant LC50 .div.Susceptible LC50
as §4

[3] = test system: Susceptible strain of horn flies (Haematobia irritans); experiment: treated filterpaper-tarsal contact 24 hour bioassay, susceptible horn flies (Example 2); conditions: Table II
Description: as §2, §3, §4
(§7) Evaluation Of Test Compounds vs. Permethrin On Susceptible And Resistant Strains Of Horn Flies (Haematobia irritans)
(§8) Using essentially the standard treated filterpaper-tarsal contact 24 hour bioassay described in Example 1, the following test compounds and pyrethroid insecticide are evaluated: […]

[4] = test system: Resistant strain of horn flies (Haematobia irritans); experiment: treated filterpaper-tarsal contact 24 hour bioassay, resistant horn flies, with resistance factor (Example 2); conditions: Table II; for Resistant LC50: resistant horn flies
Description: as §2, §5, §6, §4, §7, §8

[5] = test system: pyrethroid-susceptible Peak Hill strain sheep body lice; experiment: treated cotton square contact bioassay, pyrethroid-susceptible sheep body lice (Example 3); conditions: 16 hours
Description: (§9) Evaluation Of Test Compound Activity Against Susceptible And Resistant Sheep Body Lice
(§10) In this evaluation, test compounds are dissolved in acetone and diluted in a gradient series. One mL aliquots of the acetone dilutions are pipetted onto 6 cm cotton squares. The treated squares are dried and put into 9 cm petri dishes. Adult lice from the pyrethroid-susceptible Peak Hill strain and the pyrethroid-resitant Rowena strain are collected by suction from sheep, transferred onto each treated square and confined using a stainless steel ring (50 mm diameter×20 mm). After 16 hours, the lice are scored as dead, moribund or alive. In this bioassay, the test compound killed, rather than knocked-down lice. Each treatment is replicated. Standard log probit analysis techniques are used to determine the LC50 and LC99 values from the mortality data, and are within 95% confidence limits. The LC50 values are then used to determine the resistance factor (RF) as shown below.
(§11) The LC50 is the concentration in mg/L of test compound required to kill 50% of the lice population tested. The LC99 is the concentration in mg/L of test compound required to kill 99% of the lice population tested.

[6] = test system: pyrethroid-resistant Rowena strain sheep body lice; experiment: treated cotton square contact bioassay, pyrethroid-resistant sheep body lice, with resistance factor (Example 3); conditions: 16 hours
Description: as §9, §10, §6, §11

[7] = Experiment 1, pyrethroid-resistant horn flies
[8] = Experiment 2, pyrethroid-resistant horn flies
[9] = Experiment 3, pyrethroid-resistant horn flies

SMILES | Susceptible LC50 ([1]; Experiment 1) | Susceptible LC50 ([1]; Experiment 2) | Susceptible LC50 ([1]; Experiment 3) | RF (resistance factor; Resistant LC50 ÷ Susceptible LC50) ([2]; Experiment 1) | Resistant LC50 [2, 7] | RF (resistance factor; Resistant LC50 ÷ Susceptible LC50) ([2]; Experiment 2) | Resistant LC50 [2, 8] | RF (resistance factor; Resistant LC50 ÷ Susceptible LC50) ([2]; Experiment 3) | Resistant LC50 [2, 9] | Susceptible LC50 [3] | RF (resistance factor; Resistant LC50 ÷ Susceptible LC50) [4] | Resistant LC50 [4] | Susceptible LC50 [5] | EC99 ([5]; read-out: Susceptible LC99) | Resistant LC50 ([6]; Rowena strain) | EC99 ([6]; Rowena strain, read-out: Resistant LC99) | RF (resistance factor; Resistant LC50 ÷ Susceptible LC50) ([6]; sheep body lice)
CCOCn1c(-c2ccc(Cl)cc2)c(C#N)c(Br)c1C(F)(F)F [Compound A, 4-bromo-2-(p-chlorophenyl)-1-(ethoxymethyl)-5-(trifluoromethyl)pyrrole-3-carbonitrile] | 1.2 μg/cm^2 | 2.15 μg/cm^2 | 1.25 μg/cm^2 | 0.30 | 0.356 μg/cm^2 | 0.14 | 0.294 μg/cm^2 | 0.23 | 0.287 μg/cm^2 | 1.691 μg/cm^2 | 0.23 | 0.391 μg/cm^2 | 8.30 µg/mL | 52.8 µg/mL | 5.85 µg/mL | 24.5 µg/mL | 0.7048
CC1(C)C(C=C(Cl)Cl)C1C(=O)OC(C#N)c1cccc(Oc2ccccc2)c1 (centres unmarked) [Compound B, Cypermethrin, reference compound] | 0.122 μg/cm^2 | 0.057 μg/cm^2 | 0.013 μg/cm^2 | 640 | 79.02 μg/cm^2 | 1144 | 65.20 μg/cm^2 | 3636 | 47.27 μg/cm^2 |  |  |  |  |  |  |  | 
N#Cc1c(-c2ccc(Cl)cc2)[nH]c(C(F)(F)F)c1Br [Compound C, 4-Bromo-2-(p-chlorophenyl)-5-(trifluoromethyl)pyrrole-3-carbonitrile] |  |  |  |  |  |  |  |  |  | 21.237 μg/cm^2 | 0.088 | 1.877 μg/cm^2 |  |  |  |  | 
CCOCn1c(-c2ccc(Cl)cc2)c(C#N)c(Cl)c1C(F)(F)F [Compound D, 4-Chloro-2-(p-chlorophenyl)-1-(ethoxymethyl)-5-(trifluoromethyl)pyrrole-3-carbonitrile] |  |  |  |  |  |  |  |  |  | 8.692 μg/cm^2 | 0.123 | 1.066 μg/cm^2 |  |  |  |  | 
CC1(C)C(C=C(Cl)Cl)C1C(=O)OCc1cccc(Oc2ccccc2)c1 (centres unmarked) [Compound E, Permethrin, reference compound] |  |  |  |  |  |  |  |  |  | 0.102 μg/cm^2 | 80.0 | 8.16 μg/cm^2 |  |  |  |  | 

Reference: patent publication US5817324A, “Use of arylpyrroles for the control of resistant insect populations” (American Cyanamid Company, priority 1997, dated 1998)
